Seven cell lines from the supplement of paper PMC10307832 can be followed below.

Assay in all cases: relative viability (nuclei count vs DMSO), 5 days (fraction); higher = more cells survive
Compound in the experiment “RU-SKI 43 + Luminespib”: CC[C@@H](C)CNCC(=O)N1CCC2=C([C@@H]1COC3=CC=CC(=C3)C)C=CS2 [RU-SKI 43] + CCNC(=O)c1noc(-c2cc(C(C)C)c(O)cc2O)c1-c1ccc(CN2CCOCC2)cc1 [Luminespib] (partner 0.01 µM)
The method, boiled down:
(§1)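 Lung cancer cell lines were pin-tool dosed in 1536-well plates on the day after seeding, with either a lone drug or a fixed anchor-drug dose plus five library-drug doses (not always all listed) in √10 steps. Nuclei were counted on 4× images after 5 days. Relative viability is the ratio of treated-well to vehicle-well nuclei counts, with each value a median of duplicate plates.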

Compound in the experiment “Irinotecan + Vorinostat”: CCc1c2c(nc3ccc(OC(=O)N4CCC(N5CCCCC5)CC4)cc13)-c1cc3c(c(=O)n1C2)COC(=O)[C@]3(O)CC [Irinotecan] + O=C(CCCCCCC(=O)Nc1ccccc1)NO [Vorinostat] (partner 1 µM)
The method, boiled down:
as §1

Compound in the experiment “MK-8033 + Pictilisib”: Cn1cc(-c2cnc3ccc4ccc(CS(=O)(=O)NCc5ccccn5)cc4c(=O)c3c2)cn1 [MK-8033] + CS(=O)(=O)N1CCN(Cc2cc3nc(-c4cccc5[nH]ncc45)nc(N4CCOCC4)c3s2)CC1 [Pictilisib] (partner 1 µM)
In outline:
as §1

Compound in the experiment “MK-8033 + Vorinostat”: Cn1cc(-c2cnc3ccc4ccc(CS(=O)(=O)NCc5ccccn5)cc4c(=O)c3c2)cn1 [MK-8033] + O=C(CCCCCCC(=O)Nc1ccccc1)NO [Vorinostat] (partner 1 µM)
In outline: as §1

Take NCI-H2085: the relative viability stood at 0.398 with RU-SKI 43 + Luminespib (first compound 0.1 µM); 0.481 with RU-SKI 43 + Luminespib (first compound 0.3162 µM); 0.591 with RU-SKI 43 + Luminespib (first compound 1 µM); 0.431 with RU-SKI 43 + Luminespib (first compound 3.162 µM); 0.407 with RU-SKI 43 + Luminespib (first compound 10 µM); 0.753 with Irinotecan + Vorinostat (first compound 0.6325 µM). Besides, the relative viability stood at 0.756 in the experiment with Irinotecan + Vorinostat (first compound 2 µM); 0.583 with Irinotecan + Vorinostat (first compound 6.325 µM); 0.564 with Irinotecan + Vorinostat (first compound 20 µM); 0.417 in the experiment with MK-8033 + Pictilisib (first compound 0.02 µM); 0.369 with MK-8033 + Pictilisib (first compound 0.06325 µM); 0.532 with MK-8033 + Pictilisib (first compound 0.2 µM). Besides, the relative viability with MK-8033 + Pictilisib (first compound 0.6325 µM) was found to be 0.57; with MK-8033 + Pictilisib (first compound 2 µM), 0.395; with MK-8033 + Vorinostat (first compound 0.02 µM), 0.744; in the experiment with MK-8033 + Vorinostat (first compound 0.06325 µM), 0.734; with MK-8033 + Vorinostat (first compound 0.2 µM), 0.691; in the experiment with MK-8033 + Vorinostat (first compound 0.6325 µM), 0.835. Further, the relative viability with MK-8033 + Vorinostat (first compound 2 µM) amounted to 0.764.
For the cell line NCI-H2087, the relative viability in the experiment with RU-SKI 43 + Luminespib (first compound 0.1 µM) is 0.158; in the experiment with RU-SKI 43 + Luminespib (first compound 0.3162 µM), 0.173; in the experiment with RU-SKI 43 + Luminespib (first compound 1 µM) it was 0.193; in the experiment with RU-SKI 43 + Luminespib (first compound 3.162 µM), 0.145; with RU-SKI 43 + Luminespib (first compound 10 µM) it was 0.131; with Irinotecan + Vorinostat (first compound 0.6325 µM), 0.235. The relative viability in the experiment with Irinotecan + Vorinostat (first compound 2 µM) amounted to 0.215; with Irinotecan + Vorinostat (first compound 6.325 µM), 0.165; with Irinotecan + Vorinostat (first compound 20 µM), 0.16; with MK-8033 + Pictilisib (first compound 0.02 µM) it was 0.912; with MK-8033 + Pictilisib (first compound 0.06325 µM), 0.814; with MK-8033 + Pictilisib (first compound 0.2 µM), 0.737. For the same cell line, the relative viability was determined as 0.994 in the experiment with MK-8033 + Pictilisib (first compound 0.6325 µM); 0.692 in the experiment with MK-8033 + Pictilisib (first compound 2 µM); 0.788 with MK-8033 + Vorinostat (first compound 0.02 µM); 0.368 in the experiment with MK-8033 + Vorinostat (first compound 0.06325 µM); 0.749 with MK-8033 + Vorinostat (first compound 0.2 µM); 0.728 with MK-8033 + Vorinostat (first compound 0.6325 µM). In the experiment with MK-8033 + Vorinostat (first compound 2 µM), the relative viability came out at 0.692.
Consider NCI-H2126, for which the relative viability in the experiment with RU-SKI 43 + Luminespib (first compound 0.1 µM) worked out at 0.837; with RU-SKI 43 + Luminespib (first compound 0.3162 µM) it was 1.09; with RU-SKI 43 + Luminespib (first compound 1 µM) it was 1.11; with RU-SKI 43 + Luminespib (first compound 3.162 µM) it was 0.959; in the experiment with RU-SKI 43 + Luminespib (first compound 10 µM), 0.891; in the experiment with Irinotecan + Vorinostat (first compound 0.6325 µM) it was 0.4. Also, the relative viability amounted to 0.616 in the experiment with Irinotecan + Vorinostat (first compound 2 µM); 0.335 in the experiment with Irinotecan + Vorinostat (first compound 6.325 µM); 0.292 with Irinotecan + Vorinostat (first compound 20 µM); 0.491 in the experiment with MK-8033 + Pictilisib (first compound 0.02 µM); 0.393 with MK-8033 + Pictilisib (first compound 0.06325 µM); 0.455 with MK-8033 + Pictilisib (first compound 0.2 µM). Also, the relative viability was 0.515 with MK-8033 + Pictilisib (first compound 0.6325 µM); 0.491 with MK-8033 + Pictilisib (first compound 2 µM); 0.671 in the experiment with MK-8033 + Vorinostat (first compound 0.02 µM); 0.554 with MK-8033 + Vorinostat (first compound 0.06325 µM); 0.72 with MK-8033 + Vorinostat (first compound 0.2 µM); 0.798 with MK-8033 + Vorinostat (first compound 0.6325 µM). In the experiment with MK-8033 + Vorinostat (first compound 2 µM), the relative viability came out at 0.822.
As to NCI-H2170, the relative viability in the experiment with RU-SKI 43 + Luminespib (first compound 0.1 µM) was 0.751; with RU-SKI 43 + Luminespib (first compound 0.3162 µM), 0.73; in the experiment with RU-SKI 43 + Luminespib (first compound 1 µM), 0.73; in the experiment with RU-SKI 43 + Luminespib (first compound 3.162 µM), 0.755; in the experiment with RU-SKI 43 + Luminespib (first compound 10 µM), 0.67; with Irinotecan + Vorinostat (first compound 0.6325 µM) it was 0.864. Besides, the relative viability was found to be 0.753 with Irinotecan + Vorinostat (first compound 2 µM); 0.327 with Irinotecan + Vorinostat (first compound 6.325 µM); 0.102 in the experiment with Irinotecan + Vorinostat (first compound 20 µM); 0.382 with MK-8033 + Pictilisib (first compound 0.02 µM); 0.291 with MK-8033 + Pictilisib (first compound 0.06325 µM); 0.293 with MK-8033 + Pictilisib (first compound 0.2 µM). The relative viability with MK-8033 + Pictilisib (first compound 0.6325 µM) was 0.32; with MK-8033 + Pictilisib (first compound 2 µM), 0.302; with MK-8033 + Vorinostat (first compound 0.02 µM) it was 0.802; with MK-8033 + Vorinostat (first compound 0.06325 µM), 0.882; in the experiment with MK-8033 + Vorinostat (first compound 0.2 µM), 0.691; with MK-8033 + Vorinostat (first compound 0.6325 µM), 0.768. The relative viability with MK-8033 + Vorinostat (first compound 2 µM) stood at 0.79.
With NCI-H2228, the relative viability was found to be 0.178 with RU-SKI 43 + Luminespib (first compound 0.1 µM); 0.15 with RU-SKI 43 + Luminespib (first compound 0.3162 µM); 0.177 with RU-SKI 43 + Luminespib (first compound 1 µM); 0.149 in the experiment with RU-SKI 43 + Luminespib (first compound 3.162 µM); 0.199 with RU-SKI 43 + Luminespib (first compound 10 µM); 0.567 in the experiment with Irinotecan + Vorinostat (first compound 0.6325 µM). Moreover, the relative viability in the experiment with Irinotecan + Vorinostat (first compound 2 µM) is 0.592; with Irinotecan + Vorinostat (first compound 6.325 µM), 0.435; with Irinotecan + Vorinostat (first compound 20 µM), 0.433; with MK-8033 + Pictilisib (first compound 0.02 µM), 0.397; with MK-8033 + Pictilisib (first compound 0.06325 µM), 0.599; with MK-8033 + Pictilisib (first compound 0.2 µM), 0.356. Further, the relative viability is 0.336 with MK-8033 + Pictilisib (first compound 0.6325 µM); 0.357 with MK-8033 + Pictilisib (first compound 2 µM); 0.594 with MK-8033 + Vorinostat (first compound 0.02 µM); 0.562 with MK-8033 + Vorinostat (first compound 0.06325 µM); 0.417 with MK-8033 + Vorinostat (first compound 0.2 µM); 0.696 in the experiment with MK-8033 + Vorinostat (first compound 0.6325 µM). Moreover, the relative viability in the experiment with MK-8033 + Vorinostat (first compound 2 µM) came to 0.821.
For the cell line NCI-H2347, the relative viability with RU-SKI 43 + Luminespib (first compound 0.1 µM) amounted to 0.443; with RU-SKI 43 + Luminespib (first compound 0.3162 µM) it was 0.717; with RU-SKI 43 + Luminespib (first compound 1 µM) it was 0.639; with RU-SKI 43 + Luminespib (first compound 3.162 µM) it was 0.357; with RU-SKI 43 + Luminespib (first compound 10 µM), 0.35; in the experiment with Irinotecan + Vorinostat (first compound 0.6325 µM) it was 0.435. The relative viability in the experiment with Irinotecan + Vorinostat (first compound 2 µM) is 0.631; in the experiment with Irinotecan + Vorinostat (first compound 6.325 µM) it was 0.514; in the experiment with Irinotecan + Vorinostat (first compound 20 µM) it was 0.548; with MK-8033 + Pictilisib (first compound 0.02 µM), 0.685; with MK-8033 + Pictilisib (first compound 0.06325 µM), 0.438; with MK-8033 + Pictilisib (first compound 0.2 µM), 0.597. Also, the relative viability with MK-8033 + Pictilisib (first compound 0.6325 µM) was 0.771; with MK-8033 + Pictilisib (first compound 2 µM), 0.603; in the experiment with MK-8033 + Vorinostat (first compound 0.02 µM), 0.544; with MK-8033 + Vorinostat (first compound 0.06325 µM), 0.537; in the experiment with MK-8033 + Vorinostat (first compound 0.2 µM), 0.501; with MK-8033 + Vorinostat (first compound 0.6325 µM) it was 0.717. Also, the relative viability in the experiment with MK-8033 + Vorinostat (first compound 2 µM) is 0.597.
As to NCI-H2405, the relative viability stood at 0.639 with RU-SKI 43 + Luminespib (first compound 0.1 µM); 0.474 with RU-SKI 43 + Luminespib (first compound 0.3162 µM); 0.543 with RU-SKI 43 + Luminespib (first compound 1 µM); 0.736 in the experiment with RU-SKI 43 + Luminespib (first compound 3.162 µM); 0.486 with RU-SKI 43 + Luminespib (first compound 10 µM); 0.956 with Irinotecan + Vorinostat (first compound 2 µM). In addition, the relative viability with Irinotecan + Vorinostat (first compound 6.325 µM) amounted to 0.307; with Irinotecan + Vorinostat (first compound 20 µM), 0.195; with MK-8033 + Pictilisib (first compound 0.02 µM) it was 0.502; with MK-8033 + Pictilisib (first compound 0.06325 µM), 0.445; with MK-8033 + Pictilisib (first compound 0.2 µM) it was 0.404; with MK-8033 + Pictilisib (first compound 0.6325 µM), 0.434. Also, the relative viability was 0.593 in the experiment with MK-8033 + Pictilisib (first compound 2 µM); 1.1 with MK-8033 + Vorinostat (first compound 0.02 µM); 0.988 with MK-8033 + Vorinostat (first compound 0.06325 µM); 0.9 with MK-8033 + Vorinostat (first compound 0.2 µM); 1.06 with MK-8033 + Vorinostat (first compound 0.6325 µM); 1.04 with MK-8033 + Vorinostat (first compound 2 µM).
